Tests used:
[1] = test system: HST578, MBAMD231, HCC1937, HCC1954 cancer cells; assay: Cell survival assay, TRDMT1i alone (Example 19); format: cell-based; conditions: HCC1954, HRD, high SYCP2
Method: FIGS. 14A-14C show TRDMT1i alone reduce cancer cell survival in a dose-dependent manner. (FIG. 14A) Survival rate of HR proficient (HR+) HST578 cancer cells with and without siBRCA1 and/or TRDMT1i YW-1842 at indicated dose. The survival rate of these cells was analyzed (n=3, Mean±SD). (FIG. 14B) Survival rate of MBAMD231 (HR+) and HCC1937 (HRD) cells. The survival rate of these cells was analyzed (n=3, Mean±SD). (FIG. 14C) Cell survival rate in different cancer cell lines via colony-forming assay with the treatment of Imatinib at indicated dose (n=3, mean+/−S.D.). Cell lines are listed in order with the expression level from SYCP2high to SYCP2low.
Cells were seeded in each 6-cm dish and cultured as described above. They were treated with drugs with indicated dose in medium after seeding. After 7-10 days, colonies were fixed and stained with 0.3% crystal violet in methanol, and the number of colonies was counted manually.

[2] = test system: MD-MBA-231 xenograft tumors; assay: MD-MBA-231 xenograft with PARPi; format: in vivo, BALB/c nude mice
Method: FIGS. 9A-9G show SYCP2 is required for efficient homologous recombination. (FIG. 9A) Cell survival rate of HeLa and MDAMB231 via colony forming assay with the treatment of […], 4 μm, 6 μM, 8 μM, 16 μM of Olaparib (n=3, mean+/−S.D.). Western blot of SYCP2 overexpression in HeLa and MDA-MB-231 is shown in the left. (FIG. 9B) Cell survival rate of HeLa via colony forming assay with the treatment of 1 μM, 2 μm, 3 μM of Olaparib (n=3, mean+/−S.D.). Western blot of SYCP2 knockdown in Hela is shown in the left. (FIG. 9C) Scheme of Xenograft design using intraperitoneal injection of MBA-MD-231 into successful developed mouse model with virus-associated SYCP2 knockdown and control groups is shown in the left. PARPi was injected every 2 days after day 7. The graph is shown the recorded tumor size of each tested group with PARPi treatment or saline at each treatment day. (FIG. 9D). Numbers of SYCP2 IR induced foci (IRIF) colocalizing with γH2AX in MDAMB231 and HeLa cells. Cells were fixed and counted for foci numbers after 2 Gy IR followed up indicated recovery time (t=0 hr, 12 hr, 24 hr, and 48 hr) (n=30, mean+/−S.D). (FIG. 9E). […] Fold increase of mean intensity at sites of irradiation compared to mean intensity of nucleus expression is quantified (n=5, mean+/−SD). […] Numbers of RAD51 IRIF in siCtrl and siSYCP2 treated MDAMB231 and U2OS cells after 2 Gy IR and 1 hour recovery were counted (n=20, +/SD). […]

[3] = test system: ZR-75-30, MCF7, HCC-1954, HCC-1937, MDA-MB-468 and MDA-MB-231; assay: Colony formation assay with Olaparib in six breast cancer cell lines; format: cell-based
Method: FIGS. 10A-10E show SYCP2 promotes RAD51 localization to DSBs independently of BRCA1. (FIG. 10A) The schematic mechanism of HR in the absence of BRCA1/2 for RAD51 loading with the help of SYCP2. RAD51 IRIF in BRCA1 mutant breast cancer cell lines after 2 Gy IR and 1 hour recovery with or without siSYCP2. Numbers of RAD51 foci per cell in siCtrl and siSYCP2 were quantified (n=20). The frameshift mutation of BRCA1 in cell line HCC1954 and HCC1937 is listed in the right. (FIG. 10B) The frequency of BRCA1 and SYCP2 IRIF colocalizing with γ-H2AX in U2OS cells after 2 Gy IR and recovery of 1 hour. Western blot of BRCA1 and SYCP2 knockdown and RAD51 expression level was shown in the left. (FIG. 10C) Comparison of SYCP2 RNA expression (CCLE database) in BRCA1/2 mutant and wildtype breast cancer cell lines. The analysis is normalized to Fragments Per Kilobase Million (FPKM). (FIG. 10D) Plot of correlation between SYCP2 expression and IC50 of Olaparib in groups of BRCA WT vs. mutant cells (left), high BRCA1 vs. low BRCA1 (right). p values and r values were determined by using Pearson correlated analysis. […]
Approximately 400 cells were replanted on 6-cm dishes 48 h after siRNA transfection. […] Colonies were stained with 0.3% crystal violet/methanol and counted 9 days after treatments. Each experiment was performed at least 3 times and the standard errors were calculated and indicated in the graphs. […]

[4] = test system: SKOV3 subcutaneous xenograft tumors; assay: SKOV3 xenograft with Cisplatin; format: in vivo, BALB/c nude mice; conditions: Cisplatin 5 mg/kg into tumor twice per week for 3 weeks, Lv-shTRDMT1 versus Lv-NC
Method: FIGS. 5A-5E show reduced TRDMT1 expression renders Cisplatin sensitization in vivo. (FIG. 5A) Lv-shTRDMT1 or Lv-NC transfected SKOV3 cells were subcutaneously injected into BALB/c nude mice, a week after injection, Cisplatin (5 mg/kg) or saline was injected into the center of the xenograft tumors twice per week for 3 consecutive weeks. (FIG. 5B) Representative images of tumors in xenografts transfected with LV-shTRDMT1/LV-NC with saline or Cisplatin treatment. (FIG. 5C) Tumor size of SKOV3 subcutaneous xenograft tumors (n=6, Mean±SD). (FIG. 5D) WB for TRDMT1 in tumor tissues collected from mice in each group (Tissues from six tumors in the same group were mixed into one sample). (FIG. 5E) IHC of TRDMT1 and KI-67 expression in ovarian cancer tissues of patients who were platinum-sensitive (PFS>6) and —resistant (PFS<6) Staining was assessed and scored on a scale of 0 (<5% staining) to 4 (>75% staining) in G. Quantification of IHC staining (n=38, PFS>6, n=24; PFS<6, n=14) was shown. […]
When mice developed palpable tumors (about a week after injection), cDDP (5 mg/kg) or saline were then injected into the center of the xenograft tumors twice per week for 3 consecutive weeks. […] PFS was calculated from the time of surgery to the time of progression or recurrence. […]

breast tumors = assay: Sacituzumab Govitecan (IMMU-132) clinical trial, outcome by SYCP2 IHC; format: in vivo; conditions: 16 patients
Text: FIGS. 13A-13D show high SYCP2 expression associates with poor prognosis and drug resistance in patients. (FIG. 13A). Summarization of subtypes of breast cancer patients in a Sacituzumab Govitecan (IMMU-132) clinical trial group. Patients were divided to high SYCP2 group and low SYCP2 group by IHC of SYCP2. IHC staining of SYCP2 expression in patient tumor tissues from the IMMU-132 clinical trial group. Representative images were shown. Cutoff value is median. Numbers of patients' response as Partial Response (PR) or Stable Disease (SD) in low SYCP2 group and high SYCP2 group in IMMU clinical trial are shown. (FIG. 13B) Kaplan-Meier curves of patients' overall survival and progression free survival in FIG. 13A. (FIG. 13C) Overall survival curves of 1095 patients from TCGA. Cutoff value is median. R value and p value were calculated by COX survival analysis. […]
The collected tumor specimens and adjacent normal tissue samples were fixed in 4% parafoiinaldehyde, stored in PBS. After sucrose infiltration, samples were filled with OTC and ready for cryosection. […] After deparaffinization and rehydration, sections were blocked and incubated with antibody against SYCP2 (PAS-67554, 1:20), Ki-67 (sc-23900, Santa Cruz, 1:200), and then detected using the Dako Envision two-step method of immunohistochemistry (Carpinteria, CA, USA). […] All IHC staining was scored independently by 2 pathologists. […]

O=C(c1cc(Cc2n[nH]c(=O)c3ccccc23)ccc1F)N1CCN(C(=O)C2CC2)CC1 [Olaparib]
response of HCC1954 to PARPi [1]: relatively resistant
tumor growth, control tumors ([2]; siControl tumors, intraperitoneal, every 2 days after day 7, 23 days): reduced the growth of control tumors
tumor growth, SYCP2 knockout tumors ([2]; siSYCP2 tumors versus control tumors): reduced the growth of SYCP2 knockout tumors more than control tumors
PARPi sensitivity, BRCA1 mutant versus non-mutant ([3]; among four cell lines expressing high levels of SYCP2): more sensitive
PARPi sensitivity, low versus high SYCP2 ([3]; among four cell lines without BRCA mutations): much more sensitive

N.N.[Cl][Pt][Cl] [cisplatin]
xenograft tumor size, Lv-shTRDMT1 tumors [4]: grew statistically smaller

Sacituzumab Govitecan
response rate in patients with SYCP2high tumors (breast tumors; SYCP2high versus SYCP2low by IHC): reduced rate of partial response (PR) but an increased rate of stable disease (SD)
survival in patients with high SYCP2 expression (breast tumors; high SYCP2 expression): shorter overall survival and progression-free survival
